Experimental findings from ChEMBL document CHEMBL3526148, “Cerebrospinal fluid can be used as a surrogate to assess brain exposures of breast cancer resistance protein and P-glycoprotein substrates” (Drug Metab Dispos, 2012) are described below.

The structures appear in SMILES notation.

Format in all cases: ADME, cell-based
Data set [1] is described as follows: Inhibition of P-gp-mediated [3H]-digoxin transport in human Caco2 cells at 3 uM after 30 mins. The following applies: caco-2, 0.5 h. A general note: Passage across Caco-2 layers is used to estimate intestinal permeability.
Data set [2] deals with T1, Broad substrate specificity ATP-binding cassette transporter ABCG2 (Homo sapiens, UniProt Q9UNQ0).
T1 sequence (Q9UNQ0 whole entry): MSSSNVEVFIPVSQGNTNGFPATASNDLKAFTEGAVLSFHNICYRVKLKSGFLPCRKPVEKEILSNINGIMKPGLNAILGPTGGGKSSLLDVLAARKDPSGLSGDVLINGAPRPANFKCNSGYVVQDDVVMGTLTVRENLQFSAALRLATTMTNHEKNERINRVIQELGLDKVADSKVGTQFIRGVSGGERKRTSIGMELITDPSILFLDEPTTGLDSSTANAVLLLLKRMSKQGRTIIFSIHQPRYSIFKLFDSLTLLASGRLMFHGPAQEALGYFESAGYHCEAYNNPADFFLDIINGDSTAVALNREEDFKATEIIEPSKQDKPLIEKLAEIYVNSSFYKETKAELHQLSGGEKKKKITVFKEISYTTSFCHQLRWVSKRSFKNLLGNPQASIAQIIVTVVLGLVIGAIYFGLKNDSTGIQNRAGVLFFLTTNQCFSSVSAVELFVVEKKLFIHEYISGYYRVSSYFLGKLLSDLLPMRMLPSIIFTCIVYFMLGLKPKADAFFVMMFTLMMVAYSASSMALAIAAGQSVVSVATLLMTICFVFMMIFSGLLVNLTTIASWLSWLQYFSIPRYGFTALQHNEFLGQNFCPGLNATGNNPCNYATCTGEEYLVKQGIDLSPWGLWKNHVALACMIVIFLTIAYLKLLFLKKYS
Put plainly: Inhibition of BCRP-mediated [3H]estrone-3-sulfate transport in human Caco2 cells at 3 uM after 30 mins. The conditions noted are these: caco-2, 0.5 h.

Data set [3] is described as follows: Apparent permeability from apical to basolateral side in human Caco2 cells at 5 uM after 2 hrs. The following applies: Caco-2.
Data set [4] can be described thus: Inhibition of P-gp-mediated [3H]-digoxin transport in human Caco2 cells at 10 to 50 uM after 30 mins. The following applies: caco-2, 0.5 h.
The nature of data set [5]: Apparent permeability from basolateral to apical side in human Caco2 cells at 5 uM after 2 hrs. The following applies: Caco-2.
Data set [6] addresses T1, Broad substrate specificity ATP-binding cassette transporter ABCG2. Put plainly: Inhibition of BCRP-mediated [3H]estrone-3-sulfate transport in human Caco2 cells at 1 uM after 30 mins. The conditions noted are these: caco-2, 0.5 h.
Data set [7] is described as follows: Inhibition of P-gp-mediated [3H]-digoxin transport in human Caco2 cells at 1 uM after 30 mins. The conditions noted are these: caco-2, 0.5 h.

For the compound `COc1cc2c(cc1OC)CN(CCc1ccc(NC(=O)c3cccc4c(=O)c5cccc(OC)c5[nH]c34)cc1)CC2`, the “inhibition (INH)” value in data set [1] and in data set [2] was “Active” throughout.
For `COc1ccc2c3c([nH]c2c1)[C@H](CC(C)C)N1C(=O)[C@H](CCC(=O)OC(C)(C)C)NC(=O)[C@@H]1C3`, in data set [1], the “inhibition (INH)” value is “Not Active”.
As for `O=C1CN(/N=C/c2ccc(-c3ccc([N+](=O)[O-])cc3)o2)C(O)=N1` [DANTROLENE], in data set [3], the Papp A→B (commonly the apparent permeability from the apical to the basolateral side of a cell layer) at 2 h, 5 µM came out at 2 ×10⁻⁶ cm/s. Moreover, the “inhibition (INH)” value in data set [4] is “Not Active”. For the same compound, in data set [5], the Papp B→A (commonly the apparent permeability from the basolateral to the apical side of a cell layer) at 2 h, 5 µM is 9.8 ×10⁻⁶ cm/s.
As for `C/C=C/C[C@@H](C)C(=O)[C@H]1C(=O)N[C@@H](C(C)C)C(=O)N(C)CC(=O)N(C)[C@@H](CC(C)C)C(=O)N[C@@H](C(C)C)C(=O)N(C)[C@@H](CC(C)C)C(=O)N[C@@H](C)C(=O)N[C@H](C)C(=O)N(C)[C@@H](CC(C)C)C(=O)N(C)[C@@H](CC(C)C)C(=O)N(C)[C@@H](C(C)C)C(=O)N1C` [VALSPODAR], the entries for the “inhibition (INH)” value in data set [6] and in data set [7] were “Not Active” and “Active”, respectively.
